The values below come from patent US11639929B2, “Universal histidine-tag binding compounds and methods of use thereof as fluorescent probes and sensors” (YEDA RESEARCH AND DEVELOPMENT CO. LTD., priority 2014, dated 2023).

The target of data set [1] is T1, His-CaM(Ca^+2) (Mus musculus, UniProt P0DP26).
T1 construct: purchased Israel Structural Proteomics Center (Weizmann Institute of Science)
The data set is described as follows: Screening assay with small molecules and peptide inhibitors using the His-CaM(Ca+2)-1 complex. Conditions: test substance 1.6 μM; decrease indicates binding to the CaM surface. The procedure:
A mixture of compound 1 (200 nM), His-CaM (400 nM), and CaCl2 (0.3 mM) in PBS buffer (4.1 mM, pH=7.3) was dispensed into a 384-well microplate, and fluorescence emission spectra were recorded. Then various drugs (1.6 μM) and peptides (1.6 μM) were added and the fluorescence emission was again recorded. Fluorescence measurements were performed in triplicate and the emission intensities before the addition of each drug were normalized to 100% (FIG. 24).

Data set [2] has as its target T2, His-Bcl-2 (Homo sapiens, UniProt P10415).
T2 construct: purchased ProSpec-Tany TechnoGene Ltd. (Ness Ziona, Israel)
The data set is described as follows: Probing protein-protein interactions for Bcl-2 with the His-Bcl-2-5 complex. The data set is classed as binding. As to conditions: complex 200 nM. The procedure: Compounds 1-5 (50 μL, 10 μM) in phosphate buffer (4.1 mM, pH=7.3) were dispensed into a 384-well plate and fluorescence intensities were recorded with an excitation wavelength of 330 nm. His-Bcl-2 (final concentration, 200 nM) and Bax BH3 (final concentration, 1.6 μM) were subsequently added to each well and the fluorescence intensity values were recorded again. The emission values correspond to the maximal intensities recorded either at λem=530 nm or at λem=560 nm. Fluorescence was measured in triplicate. Data shown in FIG. 27 is the average of the triplicates and error bars represent standard deviation. Control experiments were performed in a similar manner (FIG. 28).
A mixture of compound 5 (200 nM) and His-Bcl-2 (200 nM) in PBS buffer (4.1 mM, pH=7.3) was dispensed into a 384-well microplate, and the fluorescence emission spectra were recorded. Various proteins (0.8 μM) and Bax BH3 peptide (0.8 μM) were added and the fluorescence emission was again recorded. Fluorescence measurements were performed in triplicate. The emission intensities before the addition of each protein were normalized to 100% (FIG. 27b).

In data set [3] the target is T1, His-CaM(Ca^+2). Briefly: Surface plasmon resonance on immobilized His-CaM with Ca2+. The data set is classed as binding. As to conditions: SPR, Table 2, CaCl2 0.3 mM; read-out: Dissociation constant. The procedure:
SPR experiments were performed to assess the dissociation constant between His-CaM and the compound 1 in the presence/absence of Ca^2+ ions and other ligands. His-CaM was diluted in 180 μL PBS buffer (4.1 mM, pH=7.3) and 20 μL sodium acetate (1 M, pH=3) to reach a final concentration of 20 μg/mL and then immobilized on a Biacore sensor chip CM5 through EDC/NHS chemistry. Flow cells were activated for 5 min by injecting 50 μL mixture of 50 mM NHS:200 mM EDC. Then 50 μL of His-CaM (20 μg/mL) was injected at a rate of 10 μL/min followed by injection of ethanolamine (1 M) to block the remaining surface-activated groups. Various analytes (Table 1) were injected in different concentrations, ranging from 0.1-2 μM for (20 μL/min, 80 μL injection with a delay of 180 s wash) (Table 1). Between consecutive analyte injections, the surface was regenerated with 2 mM NaOH (20 μL at 10 μL/min) followed by PBS buffer (60 μL at 10 μL/min). Non-derivatized dextran matrix flow cells served as reference cells. […] CaCl2 (0.3 mM) was pre-incubated with the analyte before injections. For the control compound C15 (entry 5), prior to each injection, the chip was washed with 20 μL EDTA (50 mM, 20 μL/min) followed by PBS buffer (20 μL at 20 μL/min) to remove any traces of Ni^2+. The data were globally fitted using BiaEvaluation software 3.2.
(Surface plasmon resonance follows binding to a sensor surface in real time, without labels.)

For data set [4], the system named is E. coli expressing His-OmpC. The data set is described as follows: Decorating bacteria with oligonucleotides, fluorescence microscopy. The data set is classed as cell-based. Conditions: 500 nM with Ni(II). The procedure: Transformed bacteria with the different OmpC constructs (OmpC or His-OmpC) were cultured to saturation in LB medium supplemented with 100 μg/ml of ampicillin at 30° C. 40 μl of the pre-cultured cells were then diluted into 4 ml of fresh LB medium supplemented with ampicillin and incubated until the OD600 reaches ˜0.6. Protein expression was then induced by the addition of 0.1% Rhamnose and 20 μM isopropyl-b-D-1-thiogalactopyranoside (IPTG) and cultures were allowed to grow at 30° C. for 18 h.
The bacterial cells (OmpC or His-OmpC) were collected by centrifugation at 6000 g for 4 min. The pellet was washed twice with PBS×1 buffer and resuspended in the same buffer to an OD600 of 0.3. To a 100 μl sample of the bacteria suspension, a preincubated sample of DNA (500 nM) and NiCl2 (2.5 μM) was added, and the cells were incubated at room temperature for 1 h. Then the bacterial sample were washed twice with PBS, resuspended in 100 μl PBS and placed on a glass-bottom dish (P35G-1.5-14-C; MatTek) precoated with poly-1-lysine (Sigma Aldrich) and left to adhere for 1 h. Finally, the wells were washed vigorously with PBS three times and imaged using an Olympus IX51 fluorescent microscope. The samples were imaged using 60× or 100× objective lenses. […]

T2 sequence (P10415 whole entry): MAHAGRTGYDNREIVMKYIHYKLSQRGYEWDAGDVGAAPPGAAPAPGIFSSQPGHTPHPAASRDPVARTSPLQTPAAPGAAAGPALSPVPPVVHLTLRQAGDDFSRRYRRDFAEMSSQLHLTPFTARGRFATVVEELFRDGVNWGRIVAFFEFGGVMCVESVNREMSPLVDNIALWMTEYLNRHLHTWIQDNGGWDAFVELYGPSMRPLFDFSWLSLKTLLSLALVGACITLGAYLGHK

Regarding `Clc1ccc(C(c2ccc(Cl)cc2)n2cc[n+](CC(OCc3ccc(Cl)cc3Cl)c3ccc(Cl)cc3Cl)c2)cc1` (stereo not shown) [calmidazolium], the “fluorescence emission of the His-CaM(Ca+2)-1 complex after addition of drug or peptide” value in data set [1] was “decrease in the fluorescence emission”. As for Mastoparan, in data set [2], the “emission signal of the His-Bcl-2-5 complex after addition of protein or peptide” value (“emission signal” for short) is recorded as “did not change the emission signal”. In addition, the “fluorescence emission of the His-CaM(Ca+2)-1 complex after addition of drug or peptide” value in data set [1] is on record as “decrease in the fluorescence emission”. Take `CC[C@H](C)[C@H](NC(=O)[C@H](Cc1ccccc1)NC(=O)[C@H](CC(N)=O)NC(=O)[C@H](CCCCN)NC(=O)[C@H](CCCCN)NC(=O)[C@H](Cc1c[nH]c2ccccc12)NC(=O)[C@H](CCCNC(=N)N)NC(=O)[C@H](CCCNC(=N)N)NC(=O)[C@@H](N)CCCCN)C(=O)N[C@@H](C)C(=O)N[C@H](C(=O)N[C@@H](CO)C(=O)N[C@@H](C)C(=O)N[C@@H](C)C(=O)N[C@@H](CC(N)=O)C(=O)N[C@@H](CCCNC(=N)N)C(=O)N[C@@H](Cc1ccccc1)C(=O)N[C@@H](CCCCN)C(=O)N[C@@H](CCCCN)C(=O)N[C@H](C(=O)N[C@@H](CO)C(=O)N[C@@H](CO)C(=O)N[C@@H](CO)C(=O)NCC(=O)N[C@@H](C)C(=O)N[C@@H](CC(C)C)C(=O)O)[C@@H](C)CC)C(C)C` [Compound M13]: the Kd in data set [3] is 8.8 nM. In data set [2], the “emission signal” value was “did not change the emission signal”. In the case of “Bax-BH3: amphipathic alpha helical peptide of Bax, Bax BH3 peptide (55-74) wild type (STKKLSECLKRIGDELDSNM)”, in data set [2], the “emission signal” value is “decreased”. With “Cy5-labeled ODN: Cy5-labeled ODN lacking a tri-NTA group, negative control (DNA GCGGCGAGGCAGC; Cy5 label, position not given here)”, the “fluorescent labeling of bacteria, fluorescence imaging” value in data set [4] is on record as “No fluorescence”.
